# Legend:
# Type in all cases: functional
# [1] = Induction of apoptosis in human M9-ENL1 cells assessed as cell death after 24 hrs by Annexin V/PI or 7-AAD staining based flow cytometry; conditions: M9-ENL1, 24 h, read-out: LC50 (the source's name)
# [2] = test system: MCF7; assay: Growth inhibition of human MCF7 cells after 48 hrs by sulforhodamine B assay; conditions: MCF7, 48 h
# [3] = test system: SK-OV-3; assay: Growth inhibition of human SKOV3 cells after 48 hrs by sulforhodamine B assay; conditions: SK-OV-3, 48 h
# [4] = test system: CCRF-CEM; assay: Growth inhibition of human CCRF-CEM cells after 48 hrs by sulforhodamine B assay
# [5] = test system: NCI-H522; assay: Growth inhibition of human NCI-H522 cells after 48 hrs by sulforhodamine B assay; conditions: NCI-H522, 48 h
# [6] = test system: COLO 205; assay: Growth inhibition of human COLO205 cells after 48 hrs by sulforhodamine B assay; conditions: COLO 205, 48 h
# [7] = Growth inhibition of human M9-ENL1 cells after 24 hrs by trypan blue assay; conditions: M9-ENL1, 24 h
# [8] = test system: SK-MEL-2; assay: Growth inhibition of human SK-MEL-2 cells after 48 hrs by sulforhodamine B assay; conditions: SK-MEL-2, 48 h
# [9] = test system: NCI/ADR-RES; assay: Growth inhibition of human NCI-ADR-RES cells after 48 hrs by sulforhodamine B assay
# [10] = test system: HOP-92; assay: Growth inhibition of human HOP92 cells after 48 hrs by sulforhodamine B assay; conditions: HOP-92, 48 h
# [11] = test system: SF-539; assay: Growth inhibition of human SF539 cells after 48 hrs by sulforhodamine B assay; conditions: SF-539, 48 h
# [12] = test system: SF-295; assay: Growth inhibition of human SF295 cells after 48 hrs by sulforhodamine B assay; conditions: SF-295, 48 h
# [13] = test system: UO-31; assay: Growth inhibition of human UO31 cells after 48 hrs by sulforhodamine B assay; conditions: UO-31, 48 h
# [14] = test system: SK-MEL-28; assay: Growth inhibition of human SK-MEL-28 cells after 48 hrs by sulforhodamine B assay; conditions: SK-MEL-28, 48 h
# [15] = test system: SN12C; assay: Growth inhibition of human SN12C cells after 48 hrs by sulforhodamine B assay
# [16] = test system: MDA-MB-435; assay: Growth inhibition of human MDA-MB-435 cells after 48 hrs by sulforhodamine B assay; conditions: MDA-MB-435, 48 h
# [17] = test system: SR; assay: Growth inhibition of human SR cells after 48 hrs by sulforhodamine B assay
# [18] = test system: SF-268; assay: Growth inhibition of human SF268 cells after 48 hrs by sulforhodamine B assay; conditions: SF-268, 48 h
# [19] = test system: RXF 393; assay: Growth inhibition of human RXF393 cells after 48 hrs by sulforhodamine B assay; conditions: RXF 393, 48 h
# [20] = test system: LOX IMVI; assay: Growth inhibition of human LOXIMVI cells after 48 hrs by sulforhodamine B assay
# [21] = test system: PC-3; assay: Growth inhibition of human PC3 cells after 48 hrs by sulforhodamine B assay; conditions: PC-3, 48 h
# [22] = test system: HCT-15; assay: Growth inhibition of human HCT15 cells after 48 hrs by sulforhodamine B assay; conditions: HCT-15, 48 h
# [23] = test system: TK-10; assay: Growth inhibition of human TK10 cells after 48 hrs by sulforhodamine B assay; conditions: TK-10, 48 h
# [24] = test system: HCC 2998; assay: Growth inhibition of human HCC2998 cells after 48 hrs by sulforhodamine B assay; conditions: HCC 2998, 48 h
# [25] = test system: BT-549; assay: Growth inhibition of human BT549 cells after 48 hrs by sulforhodamine B assay; conditions: BT-549, 48 h
# [26] = test system: HT-29; assay: Growth inhibition of human HT-29 cells after 48 hrs by sulforhodamine B assay; conditions: HT-29, 48 h
# [27] = test system: NCI-H460; assay: Growth inhibition of human NCI-H460 cells after 48 hrs by sulforhodamine B assay; conditions: NCI-H460, 48 h
# [28] = test system: MDA-MB-468; assay: Growth inhibition of human MDA-MB-468 cells after 48 hrs by sulforhodamine B assay; conditions: MDA-MB-468, 48 h
# [29] = test system: MOLT-4; assay: Growth inhibition of human MOLT4 cells after 48 hrs by sulforhodamine B assay; conditions: MOLT-4, 48 h
# [30] = test system: Hs-578T; assay: Growth inhibition of human Hs 578T cells after 48 hrs by sulforhodamine B assay
# [31] = test system: HL-60(TB); assay: Growth inhibition of human HL-60(TB) cells after 48 hrs by sulforhodamine B assay; conditions: HL-60, 48 h
# [32] = test system: ACHN; assay: Growth inhibition of human ACHN cells after 48 hrs by sulforhodamine B assay
# [33] = test system: UACC-257; assay: Growth inhibition of human UACC257 cells after 48 hrs by sulforhodamine B assay; conditions: UACC-257, 48 h
# [34] = test system: SW-620; assay: Growth inhibition of human SW620 cells after 48 hrs by sulforhodamine B assay; conditions: SW-620, 48 h
# [35] = test system: NCI-H322M; assay: Growth inhibition of human NCI-H322M cells after 48 hrs by sulforhodamine B assay
# [36] = test system: U-251; assay: Growth inhibition of human U251 cells after 48 hrs by sulforhodamine B assay; conditions: U-251, 48 h
# [37] = test system: M14; assay: Growth inhibition of human M14 cells after 48 hrs by sulforhodamine B assay; conditions: M14, 48 h
# [38] = test system: CAKI-1; assay: Growth inhibition of human Caki1 cells after 48 hrs by sulforhodamine B assay; conditions: CAKI-1, 48 h
# [39] = test system: SNB-75; assay: Growth inhibition of human SNB75 cells after 48 hrs by sulforhodamine B assay; conditions: SNB-75, 48 h
# [40] = test system: HCT-116; assay: Growth inhibition of human HCT116 cells after 48 hrs by sulforhodamine B assay; conditions: HCT-116, 48 h
# [41] = test system: A549; assay: Growth inhibition of human A549/ATCC cells after 48 hrs by sulforhodamine B assay; conditions: A549, 48 h
# [42] = test system: DU-145; assay: Growth inhibition of human DU145 cells after 48 hrs by sulforhodamine B assay; conditions: DU-145, 48 h
# [43] = test system: MDA-MB-231; assay: Growth inhibition of human MDA-MB-231 cells after 48 hrs by sulforhodamine B assay; conditions: MDA-MB-231, 48 h
# [44] = test system: OVCAR-8; assay: Growth inhibition of human OVCAR8 cells after 48 hrs by sulforhodamine B assay; conditions: OVCAR-8, 48 h
# [45] = test system: KM12; assay: Growth inhibition of human KM12 cells after 48 hrs by sulforhodamine B assay; conditions: KM12, 48 h
# [46] = test system: OVCAR-4; assay: Growth inhibition of human OVCAR4 cells after 48 hrs by sulforhodamine B assay; conditions: OVCAR-4, 48 h
# [47] = test system: SNB-19; assay: Growth inhibition of human SNB19 cells after 48 hrs by sulforhodamine B assay; conditions: SNB-19, 48 h
# [48] = test system: NCI-H226; assay: Growth inhibition of human NCI-H226 cells after 48 hrs by sulforhodamine B assay; conditions: NCI-H226, 48 h
# [49] = test system: A498; assay: Growth inhibition of human A498 cells after 48 hrs by sulforhodamine B assay; conditions: A498, 48 h
# [50] = test system: OVCAR-3; assay: Growth inhibition of human OVCAR3 cells after 48 hrs by sulforhodamine B assay; conditions: OVCAR-3, 48 h
# [51] = test system: RPMI-8226; assay: Growth inhibition of human RPMI8226 cells after 48 hrs by sulforhodamine B assay; conditions: RPMI-8226, 48 h
# [52] = test system: Malme-3M; assay: Growth inhibition of human MALME-3M cells after 48 hrs by sulforhodamine B assay
# [53] = test system: OVCAR-5; assay: Growth inhibition of human OVCAR5 cells after 48 hrs by sulforhodamine B assay; conditions: OVCAR-5, 48 h
# [54] = test system: 786-0; assay: Growth inhibition of human 786-0 cells after 48 hrs by sulforhodamine B assay; conditions: 786-0, 48 h
# [55] = test system: K562; assay: Growth inhibition of human K562 cells after 48 hrs by sulforhodamine B assay; conditions: K562, 48 h
# [56] = test system: UACC-62; assay: Growth inhibition of human UACC62 cells after 48 hrs by sulforhodamine B assay; conditions: UACC-62, 48 h
# [57] = test system: NCI-H23; assay: Growth inhibition of human NCI-H23 cells after 48 hrs by sulforhodamine B assay; conditions: NCI-H23, 48 h
# [58] = test system: SK-MEL-5; assay: Growth inhibition of human SK-MEL-5 cells after 48 hrs by sulforhodamine B assay; conditions: SK-MEL-5, 48 h
# [59] = test system: T47D; assay: Growth inhibition of human T47D cells after 48 hrs by sulforhodamine B assay
smiles,measurement,setting,value
C=C1C(=O)O[C@H]2[C@H]1CC/C(COC(=O)CCC(=O)NCCCCCCCNC(=O)CCC(=O)OC/C1=C/CC[C@@]3(C)O[C@H]3[C@H]3OC(=O)C(=C)[C@@H]3CC1)=C\CC[C@@]1(C)O[C@@H]21,CC50,[1],15 µM
C=C1C(=O)O[C@H]2[C@H]1CC/C(COC(=O)CCC(=O)NCCCN1CCOCC1)=C\CC[C@@]1(C)O[C@@H]21,CC50,[1],14 µM
C=C1C(=O)O[C@H]2[C@H]1CC/C(COC(=O)CCC(=O)Nc1cccc(N)n1)=C\CC[C@@]1(C)O[C@@H]21,CC50,[1],12 µM
C=C1C(=O)O[C@H]2[C@H]1CC/C(COC(=O)CCC(=O)NCc1ccc(Cl)nc1)=C\CC[C@@]1(C)O[C@@H]21,GI50,[2],3.2 µM
same,CC50,[1],14 µM
same,GI50,[3],28 µM
same,GI50,[4],2.2 µM
same,GI50,[5],1.6 µM
same,GI50,[6],3.3 µM
same,GI50,[7],6.5 µM
C=C1C(=O)O[C@H]2[C@H]1CC/C(COC(=O)CCC(=O)NCCN1CCOCC1)=C\CC[C@@]1(C)O[C@@H]21,CC50,[1],20 µM
C=C1C(=O)O[C@H]2[C@H]1CC/C(COC(=O)CCC(=O)NCCCCNC(=O)CCC(=O)OC/C1=C/CC[C@@]3(C)O[C@H]3[C@H]3OC(=O)C(=C)[C@@H]3CC1)=C\CC[C@@]1(C)O[C@@H]21,CC50,[1],19 µM
C=C1C(=O)O[C@H]2[C@H]1CC/C(COC(=O)CCC(=O)NCCCn1ccnc1)=C\CC[C@@]1(C)O[C@@H]21,CC50,[1],> 20 µM
C=C1C(=O)O[C@H]2[C@H]1CC/C(COC(=O)CCC(=O)NCCCCCCCCNC(=O)CCC(=O)OC/C1=C/CC[C@@]3(C)O[C@H]3[C@H]3OC(=O)C(=C)[C@@H]3CC1)=C\CC[C@@]1(C)O[C@@H]21,GI50,[8],2.25 µM
same,GI50,[9],33.5 µM
same,GI50,[10],1.58 µM
same,GI50,[11],2.43 µM
same,GI50,[2],0.77 µM
same,GI50,[12],15.1 µM
same,GI50,[13],10.9 µM
same,GI50,[14],1.65 µM
same,GI50,[15],3.74 µM
same,CC50,[1],11 µM
same,GI50,[16],1.8 µM
same,GI50,[17],0.41 µM
same,GI50,[18],3.34 µM
same,GI50,[19],0.85 µM
same,GI50,[20],1.37 µM
same,GI50,[21],3.64 µM
same,GI50,[22],3.6 µM
same,GI50,[23],20.8 µM
same,GI50,[24],4.12 µM
same,GI50,[25],1.23 µM
same,GI50,[26],1.64 µM
same,GI50,[27],5 µM
same,GI50,[28],1.33 µM
same,GI50,[3],6.45 µM
same,GI50,[29],2.11 µM
same,GI50,[30],3.88 µM
same,GI50,[31],0.63 µM
same,GI50,[32],3.13 µM
same,GI50,[33],1.76 µM
same,GI50,[34],1.22 µM
same,GI50,[35],16.3 µM
same,GI50,[36],3.03 µM
same,GI50,[37],1.79 µM
same,GI50,[38],12.7 µM
same,GI50,[4],0.32 µM
same,GI50,[39],2.02 µM
same,GI50,[40],1.54 µM
same,GI50,[41],18.5 µM
same,GI50,[5],0.48 µM
same,GI50,[42],1.92 µM
same,GI50,[43],1.97 µM
same,GI50,[44],2.9 µM
same,GI50,[45],9.46 µM
same,GI50,[46],1.64 µM
same,GI50,[47],4.15 µM
same,GI50,[48],2.06 µM
same,GI50,[49],6.72 µM
same,GI50,[50],1.5 µM
same,GI50,[51],1.67 µM
same,GI50,[52],2.04 µM
same,GI50,[53],1.82 µM
same,GI50,[54],1.62 µM
same,GI50,[55],0.97 µM
same,GI50,[6],1.35 µM
same,GI50,[56],1.97 µM
same,GI50,[57],2.99 µM
same,GI50,[7],1 µM
same,GI50,[58],3.13 µM
same,GI50,[59],1.51 µM
C=C1C(=O)O[C@H]2[C@H]1CC/C(COC(=O)CCC(=O)NCCCCCCNC(=O)CCC(=O)OC/C1=C/CC[C@@]3(C)O[C@H]3[C@H]3OC(=O)C(=C)[C@@H]3CC1)=C\CC[C@@]1(C)O[C@@H]21,CC50,[1],21 µM

# From ChEMBL document CHEMBL4033723, “Succinamide derivatives of melampomagnolide B and their anti-cancer activities” (2017)
